For 29 molecules, cytotoxicity results are on record in patent US11345712B2, “Protein-targeting compounds and pharmaceutical compositions thereof, and their therapeutic applications” (BioTheryX, Inc., priority 2019, dated 2022).

For this assay, the system named is MOLM-13 cells. Put plainly: MOLM-13 cell viability assay (CellTiter-Glo). The format is cell-based. The conditions noted are these: Homo sapiens, MOLM-13, 72 h, 3 days, concentration of 1 μM, read-out: Antiproliferative Activity (inhibition, MOLM-13 cell viability). In outline: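 Luminescent ATP read-out (CellTiter-Glo, 10 min with shaking) after 3-day compound or DMSO exposure at 37° C, 5% CO2. Cells plated at 2,500/well in RPMI 1640 plus 10% FBS.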
A general note: In ATP-based viability assays light output follows the ATP content of the culture.
Consider `CN(C)c1cc(NC(=O)NCc2cc3c(s2)C(=O)N(C2CCC(=O)NC2=O)C3)ccc1C(F)(F)F` (centres unmarked) [II-55, 1-(3-(dimethylamino)-4-(trifluoromethyl)phenyl)-3-((5-(2,6-dioxopiperidin-3-yl)-6-oxo-5,6-dihydro-4H-thieno[2,3-c]pyrrol-2-yl)methyl)urea], for which the cytotoxicity at 1 µM is > 80%.

For `CC(C)c1ccc(C(=O)C(=O)NCc2scc3c2CN(C2CCC(=O)NC2=O)C3=O)cc1` (centres unmarked) [Compound I-14, 2-(4-isopropylphenyl)-N-((5-(2,6-dioxopiperidin-3-yl)-4-oxo-5,6-dihydro-4H-thieno[3,4-c]pyrrol-1-yl)methyl)-2-oxoacetamide], the cytotoxicity at 1 µM is 25 to 50%.

With `CN(C)CCOc1ccc(CC(=O)NCc2scc3c2CN(C2CCC(=O)NC2=O)C3=O)cc1` (centres unmarked) [II-80, 2-(4-(2-(dimethylamino)ethoxy)phenyl)-N-((5-(2,6-dioxopiperidin-3-yl)-4-oxo-5,6-dihydro-4H-thieno[3,4-c]pyrrol-1-yl)methyl)acetamide], the cytotoxicity at 1 µM is < 25%.

With `O=C1CCC(N2Cc3c(csc3CNC(=O)C(=O)c3ccc(Cl)c(Cl)c3)C2=O)C(=O)N1` (centres unmarked) [Compound I-24, 2-(3,4-dichlorophenyl)-N-((5-(2,6-dioxopiperidin-3-yl)-4-oxo-5,6-dihydro-4H-thieno[3,4-c]pyrrol-1-yl)methyl)-2-oxoacetamide], the cytotoxicity at 1 µM is 25 to 50%.

On to `O=C1CCC(N2Cc3cc(CNC(=O)C(=O)c4cccc(Cl)c4)ccc3C2=O)C(=O)N1` (centres unmarked) [Compound I-91, 2-(3-chlorophenyl)-N-((2-(2,6-dioxopiperidin-3-yl)-1-oxoisoindolin-5-yl)methyl)-2-oxoacetamide], for which the cytotoxicity at 1 µM was > 80%.

Regarding `COc1ccc(CC(=O)NCc2scc3c2CN(C2CCC(=O)NC2=O)C3=O)cc1C(C)C` (centres unmarked) [II-63, N-((5-(2,6-dioxopiperidin-3-yl)-4-oxo-5,6-dihydro-4H-thieno[3,4-c]pyrrol-1-yl)methyl)-2-(3-isopropyl-4-methoxyphenyl)acetamide], the cytotoxicity at 1 µM was > 80%.

Turning to `Cc1ccc(CNC(=O)NCc2cc3c(s2)CN(C2CCC(=O)NC2=O)C3=O)cc1Cl` (centres unmarked) [II-21, 1-(3-chloro-4-methylbenzyl)-3-((5-(2,6-dioxopiperidin-3-yl)-4-oxo-5,6-dihydro-4H-thieno[2,3-c]pyrrol-2-yl)methyl)urea], the cytotoxicity at 1 µM was in the range of 50 to 80%.

For `O=C1CCC(N2Cc3cc(CNC(=O)NCc4c(Cl)cccc4Cl)sc3C2=O)C(=O)N1` (centres unmarked) [II-36, 1-(2,6-dichlorobenzyl)-3-((5-(2,6-dioxopiperidin-3-yl)-6-oxo-5,6-dihydro-4H-thieno[2,3-c]pyrrol-2-yl)methyl)urea], the cytotoxicity at 1 µM was 50 to 80%.

As to `CC(C)(C)c1ccc(NC(=O)NCc2scc3c2CN(C2CCC(=O)NC2=O)C3=O)cc1` (centres unmarked) [II-148, 1-(4-(tert-butyl)phenyl)-3-((5-(2,6-dioxopiperidin-3-yl)-4-oxo-5,6-dihydro-4H-thieno[3,4-c]pyrrol-1-yl)methyl)urea], the cytotoxicity at 1 µM was > 80%.

`Cc1ccc(CCC(C)(C)C(=O)NCc2scc3c2CN([C@H]2CCC(=O)NC2=O)C3=O)cc1Cl` [II-104, (S)-4-(3-chloro-4-methylphenyl)-N-((5-(2,6-dioxopiperidin-3-yl)-4-oxo-5,6-dihydro-4H-thieno[3,4-c]pyrrol-1-yl)methyl)-2,2-dimethylbutanamide]: the cytotoxicity at 1 µM was < 25%.

`CC(C)(C)c1ccc(C(C(=O)NCc2scc3c2CN(C2CCC(=O)NC2=O)C3=O)C(F)(F)F)cc1` (centres unmarked) [II-147, 2-(4-(tert-butyl)phenyl)-N-((5-(2,6-dioxopiperidin-3-yl)-4-oxo-5,6-dihydro-4H-thieno[3,4-c]pyrrol-1-yl)methyl)-3,3,3-trifluoropropanamide]: the cytotoxicity at 1 µM is < 25%.

Regarding `CC(C)c1ccc(C(=O)C(=O)NCc2cccc3c2CN(C2CCC(=O)NC2=O)C3=O)s1` (centres unmarked) [Compound I-59, N-((2-(2,6-dioxopiperidin-3-yl)-1-oxoisoindolin-4-yl)methyl)-2-(5-isopropylthiophen-2-yl)-2-oxoacetamide], the cytotoxicity at 1 µM lay in the range of 25 to 50%.

For the molecule `Cc1ccc(N(C)C(=O)NCc2scc3c2CN(C2CCC(=O)NC2=O)C3=O)cc1Cl` (centres unmarked) [II-22, 1-(3-chloro-4-methylphenyl)-3-((5-(2,6-dioxopiperidin-3-yl)-4-oxo-5,6-dihydro-4H-thieno[3,4-c]pyrrol-1-yl)methyl)-1-methylurea], the cytotoxicity at 1 µM was 50 to 80%.

For `COc1cc(OC)c(C(=O)C(=O)NCc2cccc3c2CN(C2CCC(=O)NC2=O)C3=O)c(OC)c1` (centres unmarked) [Compound I-79, 2-(2,4,6-trimethoxyphenyl)-N-((2-(2,6-dioxopiperidin-3-yl)-1-oxoisoindolin-4-yl)methyl)-2-oxoacetamide], the cytotoxicity at 1 µM was < 25%.

As for `Cc1ccc(C(F)(F)C(=O)NCc2cc3c(s2)C(=O)N(C2CCC(=O)NC2=O)C3)cc1Cl` (centres unmarked) [II-38, 2-(3-chloro-4-methylphenyl)-N-((5-(2,6-dioxopiperidin-3-yl)-6-oxo-5,6-dihydro-4H-thieno[2,3-c]pyrrol-2-yl)methyl)-2,2-difluoroacetamide], the cytotoxicity at 1 µM is < 25%.

For the molecule `CCC(C(=O)NCc1scc2c1CN(C1CCC(=O)NC1=O)C2=O)c1ccc(C)c(Cl)c1` (centres unmarked) [II-87, 2-(3-chloro-4-methylphenyl)-N-((5-(2,6-dioxopiperidin-3-yl)-4-oxo-5,6-dihydro-4H-thieno[3,4-c]pyrrol-1-yl)methyl)butanamide], the cytotoxicity at 1 µM is < 25%.

Turning to `O=C1CCC(N2Cc3cc(CCNC(=O)C(=O)c4ccc(C5(C(F)(F)F)CC5)cc4)ccc3C2=O)C(=O)N1` (centres unmarked) [Compound I-52, N-(2-(2-(2,6-Dioxopiperidin-3-yl)-1-oxoisoindolin-5-yl)ethyl)-2-oxo-2-(4-(1-(trifluoromethyl)cyclopropyl)phenyl)acetamide], the cytotoxicity at 1 µM lay in the range of 25 to 50%.

On to `CN1CCC(c2ccc(C(=O)C(=O)NCc3scc4c3CN(C3CCC(=O)NC3=O)C4=O)cc2)CC1` (centres unmarked) [Compound I-31, N-((5-(2,6-dioxopiperidin-3-yl)-4-oxo-5,6-dihydro-4H-thieno[3,4-c]pyrrol-1-yl)methyl)-2-(4-(1-methylpiperidin-4-yl)phenyl)-2-oxoacetamide], for which the cytotoxicity at 1 µM is < 25%.

As to `Cc1ccc(CNC(=O)NCCc2scc3c2CN(C2CCC(=O)NC2=O)C3=O)cc1Cl` (centres unmarked) [II-32, 1-(3-chloro-4-methylbenzyl)-3-(2-(5-(2,6-dioxopiperidin-3-yl)-4-oxo-5,6-dihydro-4H-thieno[3,4-c]pyrrol-1-yl)ethyl)urea], the cytotoxicity at 1 µM is > 80%.

For the molecule `CC(C)(C)c1ccc(C(=O)C(=O)NCc2scc3c2C(=O)N(C2CCC(=O)NC2=O)C3=O)cc1` (centres unmarked) [Compound I-13, 2-(4-(tert-butyl)phenyl)-N-((5-(2,6-dioxopiperidin-3-yl)-4,6-dioxo-5,6-dihydro-4H-thieno[3,4-c]pyrrol-1-yl)methyl)-2-oxoacetamide], the cytotoxicity at 1 µM was < 25%.

As to `Cc1ccc(C=CC(=O)NCc2cc3c(s2)C(=O)N(C2CCC(=O)NC2=O)C3)cc1Cl` (centres unmarked) [II-33, 3-(3-chloro-4-methylphenyl)-N-((5-(2,6-dioxopiperidin-3-yl)-6-oxo-5,6-dihydro-4H-thieno[2,3-c]pyrrol-2-yl)methyl)propenamide], the cytotoxicity at 1 µM was < 25%.

On to `Cc1ccc(CS(=O)(=O)NCc2scc3c2CN(C2CCC(=O)NC2=O)C3=O)cc1Cl` (centres unmarked) [II-69, 1-(3-chloro-4-methylphenyl)-N-((5-(2,6-dioxopiperidin-3-yl)-4-oxo-5,6-dihydro-4H-thieno[3,4-c]pyrrol-1-yl)methyl)methanesulfonamide], for which the cytotoxicity at 1 µM fell in the range of 50 to 80%.

Turning to `Cc1cc(C)c(C(=O)C(=O)NCc2cccc3c2CN(C2CCC(=O)NC2=O)C3=O)c(C)c1` (centres unmarked) [Compound I-80, 2-(2,4,6-trimethylphenyl)-N-((2-(2,6-dioxopiperidin-3-yl)-1-oxoisoindolin-4-yl)methyl)-2-oxoacetamide], the cytotoxicity at 1 µM is < 25%.

Turning to `CCC(C)c1ccc(C(=O)C(=O)NCc2scc3c2CN(C2CCC(=O)NC2=O)C3=O)cc1` (centres unmarked) [Compound I-15, 2-(4-(sec-butyl)phenyl)-N-((5-(2,6-dioxopiperidin-3-yl)-4-oxo-5,6-dihydro-4H-thieno[3,4-c]pyrrol-1-yl)methyl)-2-oxoacetamide], the cytotoxicity at 1 µM is 25 to 50%.

As for `CC(C)(C)c1ccc(C(=O)C(=O)NCc2cccc3c2C(=O)N(C2CCC(=O)NC2=O)C3=O)cc1` (centres unmarked) [Compound I-48, 2-(4-(tert-butyl)phenyl)-N-((2-(2,6-dioxopiperidin-3-yl)-1,3-dioxoisoindolin-4-yl)methyl)-2-oxoacetamide], the cytotoxicity at 1 µM is < 25%.

With `O=C1CCC(N2Cc3c(CNC(=O)C(=O)c4ccc(F)cc4)cccc3C2=O)C(=O)N1` (centres unmarked) [Compound I-81, 2-(4-fluorophenyl)-N-((2-(2,6-dioxopiperidin-3-yl)-1-oxoisoindolin-4-yl)methyl)-2-oxoacetamide], the cytotoxicity at 1 µM fell in the range of 25 to 50%.

Turning to `CCCOc1ccc(C(N)C(=O)NCc2scc3c2CN(C2CCC(=O)NC2=O)C3=O)cc1` (centres unmarked) [II-112, 2-amino-N-((5-(2,6-dioxopiperidin-3-yl)-4-oxo-5,6-dihydro-4H-thieno[3,4-c]pyrrol-1-yl)methyl)-2-(4-propoxyphenyl)acetamide], the cytotoxicity at 1 µM is < 25%.

As for `O=C(Cc1ccc(N2CCCC2)cc1)NCc1scc2c1CN(C1CCC(=O)NC1=O)C2=O` (centres unmarked) [II-93, N-((5-(2,6-dioxopiperidin-3-yl)-4-oxo-5,6-dihydro-4H-thieno[3,4-c]pyrrol-1-yl)methyl)-2-(4-(pyrrolidin-1-yl)phenyl)acetamide], the cytotoxicity at 1 µM is < 25%.

`O=C1CCC(N2Cc3c(csc3CNC(=O)C(F)(F)c3ccc(C4(C(F)(F)F)CC4)cc3)C2=O)C(=O)N1` (centres unmarked) [II-165, N-((5-(2,6-Dioxopiperidin-3-yl)-4-oxo-5,6-dihydro-4H-thieno[3,4-c]pyrrol-1-yl)methyl)-2,2-difluoro-2-(4-(1-(trifluoromethyl)cyclopropyl)phenyl)acetamide]: the cytotoxicity at 1 µM was < 25%.
